# In BindingDB's records for doi:10.1073/pnas.0608389103 (Johns Hopkins University, 2006):
# Target: Methionine aminopeptidase 1 (Homo sapiens, UniProt P53582)
# Assay: MetAP Inhibition Assay
# Conditions: pH 7.5; 22 °C
# Protocol: (§1) The MetAP reaction with Co2+ as a cofactor is coupled to a prolyl aminopeptidase (ProAP) using Met-Pro-p-nitroanilide as substrate. MetAP-catalyzed cleavage of the N-terminal methionine produces prolyl-p-nitroanilide, which is rapidly hydrolyzed by ProAP to release a chromogenic product. […] The initial rate was calculated from the early part of the reaction progress curve (<5 min). Activity assays were performed in triplicate using eight to 16 concentrations of substrate or inhibitor.
row,Compound,IC50
1,"O=C(CCc1ccccc1)Nc1cccnc1C(=O)Nc1nccs1 [3-(3-phenylpropanamido)-N-(1,3-thiazol-2-yl)pyridine-2-carboxamide]",3.5 µM
2,"CC(C)C=Nc1cccnc1C(=O)Nc1nccs1 [3-[(E)-(2-methylpropylidene)amino]-N-(1,3-thiazol-2-yl)pyridine-2-carboxamide]",6.4 µM
3,"CCCCCCCC(=O)Nc1cccnc1C(=O)Nc1nccs1 [3-octanamido-N-(1,3-thiazol-2-yl)pyridine-2-carboxamide]",> 500 µM

# Target: Methionine aminopeptidase 2 (Homo sapiens, UniProt P50579)
# Sequence (P50579 whole entry): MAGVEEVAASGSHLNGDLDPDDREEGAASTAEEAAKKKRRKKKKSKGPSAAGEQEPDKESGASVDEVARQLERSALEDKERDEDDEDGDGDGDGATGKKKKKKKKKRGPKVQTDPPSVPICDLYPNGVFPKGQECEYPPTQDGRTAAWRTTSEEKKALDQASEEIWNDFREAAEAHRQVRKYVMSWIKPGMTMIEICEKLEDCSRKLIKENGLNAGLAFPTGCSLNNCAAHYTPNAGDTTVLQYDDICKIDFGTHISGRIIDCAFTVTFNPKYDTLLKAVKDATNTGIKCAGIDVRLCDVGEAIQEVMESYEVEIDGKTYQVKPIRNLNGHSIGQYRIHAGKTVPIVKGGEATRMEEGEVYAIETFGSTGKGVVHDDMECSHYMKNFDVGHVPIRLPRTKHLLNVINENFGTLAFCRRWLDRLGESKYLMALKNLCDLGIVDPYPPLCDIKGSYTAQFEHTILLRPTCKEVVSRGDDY
# Assay: MetAP Inhibition Assay
# Conditions: pH 7.5; 22 °C
# Protocol: as §1
row,Compound,IC50
1,"CC(C)(C)C(=O)Nc1cccnc1C(=O)Nc1nccs1 [3-(2,2-dimethylpropanamido)-N-(1,3-thiazol-2-yl)pyridine-2-carboxamide]",> 500 µM
2,"O=C(CCc1ccccc1)Nc1cccnc1C(=O)Nc1nccs1 [3-(3-phenylpropanamido)-N-(1,3-thiazol-2-yl)pyridine-2-carboxamide]",> 500 µM
3,"CC(C)C=Nc1cccnc1C(=O)Nc1nccs1 [3-[(E)-(2-methylpropylidene)amino]-N-(1,3-thiazol-2-yl)pyridine-2-carboxamide]",> 1000 µM
4,"CCCCCCCC(=O)Nc1cccnc1C(=O)Nc1nccs1 [3-octanamido-N-(1,3-thiazol-2-yl)pyridine-2-carboxamide]",> 500 µM
5,"CC(C)(C)OC(=O)Nc1cccnc1C(=O)Nc1nccs1 [tert-butyl N-[2-(1,3-thiazol-2-ylcarbamoyl)pyridin-3-yl]carbamate]",> 300 µM
